According to patent publication US11180510B2, “Xanthine derivatives and uses thereof as inhibitors of bromodomains of BET proteins” (Centre national de la recherche scientifique, priority 2017, dated 2021):
Structures can show the parent of a compound that is named as a salt.

Molecular target: BRD4(BD1) (Homo sapiens, UniProt O60885)
Assay: HTRF assay, BRD4(BD1)/histone peptide interaction
Assay type: binding
Parameters: made in house
Settings: HTRF; triplicates; NA = IC50 > maximal concentration of compound used
Method: HTRF assays were performed in white 384 Well Small Volume™ HiBase Polystyrene Microplates (Greiner) with a total working volume of 20 μL. Compounds were dispensed, with 100 nL per well (0.5% final DMSO), from a concentration stock of 10 mM in 100% DMSO and with serial DMSO dilutions, using an Echo® 550 robot from the Access Labcyte platform (Labcyte) and based on the transfer of liquid by acoustic wave. Then, 19.5 μL of buffer is added, using a Multidrop Combi (Thermo Fisher Scientific). […] All HTRF reagents (donor and acceptor) were purchased from CisBio Bioassays and reconstituted according to the supplier protocols. The peptide was purchased from Genic Bio Synthetic. The BRD4(1) protein was produced and purified in the laboratory.
Percentage of inhibition was calculated using the following equation: % inhibition=[(compound signal)−(min signal)]/[(max signal)−(min signal)]*100, where ‘max signal’ is the signal ratio with the compound vehicle alone (DMSO) and ‘min signal’ the signal ratio without peptide.
Selectivity profiles of bromodomain inhibitors were performed as described in HTRF screen section. […] HTRF detection reagents (EPIgeneous™ Binding Domain kits) were purchased from Cisbio Bioassays and used according to supplier's protocol. GST tagged bromodomain proteins were purchased from BPS Bioscience and histone peptide from Genic Bio Synthetic.

| SMILES | IC50 [µM] |
| --- | --- |
| COC(=O)C1CCC(CNS(=O)(=O)c2ccc3c(c2)CCCC(=O)N3)CC1 (stereo not drawn) [Compound 1c, Methyl 4-((2-oxo-2,3,4,5-tetrahydro-1H-benzo[b]azepine-7-sulfonamido)methyl)cyclohexanecarboxylate] | 53 |
| O=C1CCCc2cc(S(=O)(=O)NCC3CCC(C(=O)NCc4cccs4)CC3)ccc2N1 (stereo not drawn) [Compound 5a] | > 50 |
| O=C1CCCc2cc(S(=O)(=O)NCC3CCC(C(=O)NCc4ccccn4)CC3)ccc2N1 (stereo not drawn) [Compound 6a] | 29 |
| O=C1CCCc2cc(S(=O)(=O)NCC3CCC(C(=O)NCc4ccncc4)CC3)ccc2N1 (stereo not drawn) [Compound 6c] | 30 |
| O=C1CCCc2cc(S(=O)(=O)NCC3CCC(C(=O)NCc4cccc(O)c4)CC3)ccc2N1 (stereo not drawn) [Compound 7c] | 23 |
| Cc1noc(C)c1CNC(=O)C1CCC(CNS(=O)(=O)c2ccc3c(c2)CCCC(=O)N3)CC1 (stereo not drawn) [Compound 8a] | 22 |
| CS(=O)(=O)NCC1CCC(C(=O)NCCc2cccs2)CC1 (stereo not drawn) [Compound 8c] | 18 |
| O=C1CCCc2cc(S(=O)(=O)N3CCC(C(=O)NCc4cccs4)CC3)ccc2N1 [Compound 11b] | > 50 |
| O=C1CCCc2cc(S(=O)(=O)N3CCC(C(=O)NCCc4cccs4)CC3)ccc2N1 [Compound 11c] | > 50 |
| O=C1CCCc2cc(S(=O)(=O)NCc3ccc(C(=O)NCc4ccccn4)cc3)ccc2N1 [Compound 14a] | > 25 |
| O=C1CCCc2cc(S(=O)(=O)NCc3ccc(C(=O)NCc4cccnc4)cc3)ccc2N1 [Compound 14b] | > 25 |
| O=C1CCCc2cc(S(=O)(=O)NCc3ccc(C(=O)NCc4ccncc4)cc3)ccc2N1 [Compound 14c] | > 25 |
| O=C1CCCc2cc(S(=O)(=O)NCc3ccc(C(=O)NCc4cccc(O)c4)cc3)ccc2N1 [Compound 15b] | 46 |
| CCn1cnc2c1c(=O)[nH]c(=O)n2Cc1ccc(CN)cc1 [Compound 20a, 3-(4-(aminomethyl)benzyl)-7-ethyl-1H-purine-2,6(3H,7H)-dione trifluoroacetic salt] | 27 |
| CCn1cnc2c1c(=O)[nH]c(=O)n2Cc1ccc(CNS(C)(=O)=O)cc1 [Compound 20b] | 4.3 |
| CCCS(=O)(=O)NCc1ccc(Cn2c(=O)[nH]c(=O)c3c2ncn3CC)cc1 [Compound 20c] | 3.6 |
| CCn1cnc2c1c(=O)[nH]c(=O)n2Cc1ccc(CNS(=O)(=O)CC(C)C)cc1 [Compound 21a] | 2.9 |
| CCn1cnc2c1c(=O)[nH]c(=O)n2Cc1ccc(CNS(=O)(=O)CCOC)cc1 [Compound 21b] | 5.2 |
| CCn1cnc2c1c(=O)[nH]c(=O)n2Cc1ccc(CNS(=O)(=O)CC2CCCC2)cc1 [Compound 21c] | 1.4 |

Second part, the compound after the results:

| IC50 [µM] | SMILES |
| --- | --- |
| 4.5 | CCn1cnc2c1c(=O)[nH]c(=O)n2Cc1ccc(CNS(=O)(=O)CCN2CCOCC2)cc1 [Compound 22a] |
| 7.5 | CCn1cnc2c1c(=O)[nH]c(=O)n2Cc1ccc(CNS(=O)(=O)CCCN2CCOCC2)cc1 [Compound 22b] |
| 1.4 | CCn1cnc2c1c(=O)[nH]c(=O)n2Cc1ccc(CNS(=O)(=O)CCc2ccccc2)cc1 [Compound 22c] |
| 3.5 | CCn1cnc2c1c(=O)[nH]c(=O)n2Cc1ccc(CNS(=O)(=O)c2cn(C)cn2)cc1 [Compound 23a] |
| 1.7 | CCn1cnc2c1c(=O)[nH]c(=O)n2Cc1ccc(CNS(=O)(=O)c2cn(C)c(C)n2)cc1 [Compound 23b] |
| 1.3 | CCc1nc(S(=O)(=O)NCc2ccc(Cn3c(=O)[nH]c(=O)c4c3ncn4CC)cc2)cn1C [Compound 23c] |
| 2.7 | CCn1cnc2c1c(=O)[nH]c(=O)n2Cc1ccc(CNS(=O)(=O)c2ccn(C(C)C)n2)cc1 [Compound 24a] |
| 1.7 | CCn1cnc2c1c(=O)[nH]c(=O)n2Cc1ccc(CNS(=O)(=O)c2cc(C)ns2)cc1 [Compound 24c] |
| 2.2 | CCn1cnc2c1c(=O)[nH]c(=O)n2Cc1ccc(CNS(=O)(=O)c2ccc3oncc3c2)cc1 [Compound 26a] |
| 0.769 | CCn1cnc2c1c(=O)[nH]c(=O)n2Cc1ccc(CNS(=O)(=O)c2ccc3c(c2)n(C)c(=O)n3C)cc1 [Compound 26b] |
| 0.817 | CCn1cnc2c1c(=O)[nH]c(=O)n2Cc1ccc(CNS(=O)(=O)c2ccc3c(c2)CCN3C(C)=O)cc1 [Compound 26c] |
| 1.3 | CCn1cnc2c1c(=O)[nH]c(=O)n2Cc1ccc(CNS(=O)(=O)c2cc(-c3ccno3)ccc2C)cc1 [Compound 27a] |
| 1.3 | CCn1cnc2c1c(=O)[nH]c(=O)n2Cc1ccc(CNS(=O)(=O)c2ccc([N+](=O)[O-])cc2)cc1 [Compound 28a] |
| 0.729 | CCn1cnc2c1c(=O)[nH]c(=O)n2Cc1ccc(CNS(=O)(=O)c2ccc(N)cc2)cc1 [Compound 28b] |
| 0.687 | CCn1cnc2c1c(=O)[nH]c(=O)n2Cc1ccc(CNS(=O)(=O)c2ccc(C)cc2)cc1 [Compound 28c] |
| 1.6 | CCn1cnc2c1c(=O)[nH]c(=O)n2Cc1ccc(CNS(=O)(=O)c2ccccc2)cc1 [Compound 29a] |
| 0.6 | CCn1cnc2c1c(=O)[nH]c(=O)n2Cc1ccc(CNS(=O)(=O)c2ccc(-c3coc(C)n3)cc2)cc1 [Compound 30a] |
| 0.687 | CCn1cnc2c1c(=O)[nH]c(=O)n2Cc1ccc(CNS(=O)(=O)c2ccc(OC)cc2)cc1 [Compound 30b] |
| 0.723 | CCn1cnc2c1c(=O)[nH]c(=O)n2Cc1ccc(CNS(=O)(=O)c2cccc(NC(C)=O)c2)cc1 [Compound 31b] |
| 4.7 | CCn1cnc2c1c(=O)[nH]c(=O)n2Cc1ccc(CNC(=O)CCC2CC2)cc1 [Compound 33b] |
| 4.5 | CCCn1cc(C(=O)NCc2ccc(Cn3c(=O)[nH]c(=O)c4c3ncn4CC)cc2)cn1 [Compound 33c, N-(4-((7-ethyl-2,6-dioxo-1H-purin-3(2H,6H,7H)-yl)methyl)benzyl)-1-propyl-1H-pyrazole-4-carboxamide] |
| 4.3 | CCn1cnc2c1c(=O)[nH]c(=O)n2Cc1ccc(CNC(=O)C2CCN(C)C2)cc1 (stereo not drawn) [Compound 34a] |

| IC50 [µM] | SMILES |
| --- | --- |
| 2.8 | CCCC(=O)N1CCC(C(=O)NCc2ccc(Cn3c(=O)[nH]c(=O)c4c3ncn4CC)cc2)CC1 [Compound 34b] |
| 0.749 | CCn1cnc2c1c(=O)[nH]c(=O)n2Cc1ccc(CNC(=O)c2ccc(N3CCc4ccccc4C3)cc2)cc1 [Compound 34c] |
| 2.8 | CCn1cnc2c1c(=O)[nH]c(=O)n2Cc1ccc(CNC(=O)C2CCCC(O)C2)cc1 (stereo not drawn) [Compound 35a] |
| 7 | CCn1cnc2c1c(=O)[nH]c(=O)n2Cc1ccc(CNC(=O)C2CCC(CO)CC2)cc1 (stereo not drawn) [Compound 35b] |
| 1.8 | CCn1cnc2c1c(=O)[nH]c(=O)n2Cc1ccc(CNC(=O)[C@H](O)c2ccc(C)cc2)cc1 [Compound 35c] |
| 2.2 | CCn1cnc2c1c(=O)[nH]c(=O)n2Cc1ccc(CNC(=O)CCC(C)C)cc1 [Compound 36a] |
| 2 | CCn1cnc2c1c(=O)[nH]c(=O)n2Cc1ccc(CNC(=O)c2ccc(Oc3ccccc3)cc2)cc1 [Compound 37a] |
| 4.9 | CCn1cnc2c1c(=O)[nH]c(=O)n2Cc1ccc(CNC(=O)C(NC(=O)OC(C)(C)C)c2ccc(C)cc2)cc1 (stereo not drawn) [Compound 37b] |
| 1.7 | CCn1cnc2c1c(=O)[nH]c(=O)n2Cc1ccc(CNC(=O)[C@@H]2C[C@@H](c3ccccc3)CN2C(=O)OC(C)(C)C)cc1 [Compound 38a] |
| 8.1 | CCn1cnc2c1c(=O)[nH]c(=O)n2Cc1ccc(CNC(=O)[C@H]2CC[C@H](CNC(=O)OC(C)(C)C)CC2)cc1 [Compound 38b] |
| 5.5 | CCn1cnc2c1c(=O)[nH]c(=O)n2Cc1ccc(CNC(=O)[C@H](CC2CC2)NC(=O)OC(C)(C)C)cc1 [Compound 38c] |
| 6.8 | CCn1cnc2c1c(=O)[nH]c(=O)n2Cc1ccc(CNC(=O)[C@@H]2CCCN(C(=O)OC(C)(C)C)C2)cc1 [Compound 39a] |
| 2.3 | CCC[C@H](NC(=O)OC(C)(C)C)C(=O)NCc1ccc(Cn2c(=O)[nH]c(=O)c3c2ncn3CC)cc1 [Compound 39b] |
| 1.5 | CCn1cnc2c1c(=O)[nH]c(=O)n2Cc1ccc(CNC(=O)[C@@H]2CCC[C@H](NC(=O)OC(C)(C)C)C2)cc1 [Compound 39c] |
| 18 | CCn1cnc2c1c(=O)[nH]c(=O)n2Cc1ccc(CNC(=O)C(N)c2ccc(C)cc2)cc1 (stereo not drawn) [Compound 40a] |
| 32 | CCC[C@@H](N)C(=O)NCc1ccc(Cn2c(=O)[nH]c(=O)c3c2ncn3CC)cc1 [Compound 40b] |
| 13 | CCn1cnc2c1c(=O)[nH]c(=O)n2Cc1ccc(CNC(=O)[C@@H]2C[C@@H](c3ccccc3)CN2)cc1 [Compound 40c] |
| > 50 | CCn1cnc2c1c(=O)[nH]c(=O)n2Cc1ccc(CNC(=O)[C@H]2CC[C@H](CN)CC2)cc1 [Compound 41a] |
| > 50 | CCn1cnc2c1c(=O)[nH]c(=O)n2Cc1ccc(CNC(=O)[C@@H](N)CC2CC2)cc1 [Compound 41b] |
| > 50 | CCn1cnc2c1c(=O)[nH]c(=O)n2Cc1ccc(CNC(=O)[C@@H]2CCCNC2)cc1 [Compound 41c] |
| > 50 | CCC[C@H](N)C(=O)NCc1ccc(Cn2c(=O)[nH]c(=O)c3c2ncn3CC)cc1 [Compound 42a] |
| 32 | CCn1cnc2c1c(=O)[nH]c(=O)n2Cc1ccc(CNC(=O)C2CCCC(N)C2)cc1 (stereo not drawn) [Compound 42b] |
